Values quoted from earlier work, collected in US6814987B2, “Compositions and methods of use for extracts of magnoliaceae plants” (NPI, LLC., priority 2000, dated 2004).
Like-named read-outs stand apart in the source and are kept apart here.

## C=CCc1ccc(O)c(-c2ccc(O)c(CC=C)c2)c1 [honokiol]
250 mg/kg
  duration of muscle relaxing effect: 3 h
500 mg/kg
  observed effect: loss of righting reflex

## C=CCc1ccc(O)c(-c2cc(CC=C)ccc2O)c1 [magnolol]
mice; 63 mg/kg intraperitoneally
  observed effects: hypomotility, ptosis, and sedation
mice; 125 mg/kg
  duration of effects after injection: 2 h
  observed effects: sedation, ataxia, and prominent muscle relaxation
mice; 250 mg/kg
  duration of muscle relaxation: over 3 hr
  time to ataxia: ≤ 10 min
  time to loss of righting reflex: 40 min
